Target: human orexin 2 receptor (Homo sapiens (Human), UniProt O43614)
Assay: Human orexin 2 receptor radioligand binding ([3H]EMPA competition, HEK293 cells)
Settings: HEK293 cells expressing human orexin-2 receptor, read-out: OR 2 Ki

Sequence of human orexin 2 receptor (O43614 whole entry): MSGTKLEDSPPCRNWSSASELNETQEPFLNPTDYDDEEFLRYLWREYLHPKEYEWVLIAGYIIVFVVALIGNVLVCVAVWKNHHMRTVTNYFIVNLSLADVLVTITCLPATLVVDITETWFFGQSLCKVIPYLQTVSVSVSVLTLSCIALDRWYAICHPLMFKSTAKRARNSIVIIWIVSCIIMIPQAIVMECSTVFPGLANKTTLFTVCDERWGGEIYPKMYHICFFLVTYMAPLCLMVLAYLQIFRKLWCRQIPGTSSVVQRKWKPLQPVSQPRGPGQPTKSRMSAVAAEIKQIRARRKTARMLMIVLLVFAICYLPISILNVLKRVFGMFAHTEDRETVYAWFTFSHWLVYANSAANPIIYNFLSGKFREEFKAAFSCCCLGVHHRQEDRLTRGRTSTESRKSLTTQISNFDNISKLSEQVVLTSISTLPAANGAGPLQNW

Structure (SMILES)	Ki
O=C(c1cccc(F)c1-c1cscn1)N1CC2CN(c3cnc4cc(F)c(F)cc4n3)CC2C1 (stereo not drawn) [Example 455, 6,7-Difluoro-2-[5-{[3-fluoro-2-(1,3-thiazol-4-yl)phenyl]carbonyl}hexahydropyrrolo[3,4-c]pyrrol-2(1H)-yl]quinoxaline]	0.032 µM
COc1cccnc1-c1c(F)cccc1C(=O)N1CC2CN(c3cnc4cc(F)c(F)cc4n3)CC2C1 (stereo not drawn) [Example 453, 6,7-Difluoro-2-[5-{[3-fluoro-2-(3-methoxypyridin-2-yl)phenyl]carbonyl}hexahydropyrrolo[3,4-c]pyrrol-2(1H)-yl]quinoxaline]	0.047 µM
Cc1cc(C)nc(N2CC3CN(C(=O)c4ncccc4C(F)(F)F)CC3C2)n1 (stereo not drawn) [Example 413, 2-(4,6-Dimethylpyrimidin-2-yl)-5-{[3-(trifluoromethyl)pyridin-2-yl]carbonyl}octahydropyrrolo[3,4-c]pyrrole]	9 µM
COc1ccc(-n2nccn2)c(C(=O)N2CC3CN(c4cc(N(C)C)nc(C)n4)CC3C2)c1 (stereo not drawn) [Example 423, 6-[5-{[5-Methoxy-2-(2H-1,2,3-triazol-2-yl)phenyl]carbonyl}hexahydropyrrolo[3,4-c]pyrrol-2(1H)-yl]-N,N,2-trimethylpyrimidin-4-amine]	0.182 µM
Cc1cc(C)nc(N2CC3CN(C(=O)c4cccc5c4OCC5)CC3C2)n1 (stereo not drawn) [Example 463, 2-(2,3-Dihydro-1-benzofuran-7-ylcarbonyl)-5-(4,6-dimethylpyrimidin-2-yl)octahydropyrrolo[3,4-c]pyrrole]	4 µM
COc1ccc(C(=O)N2CC3CN(c4nc(C)cc(CO)n4)CC3C2)c(-n2nccn2)c1 (stereo not drawn) [Example 435, {2-[5-{[4-Methoxy-2-(2H-1,2,3-triazol-2-yl)phenyl]carbonyl}hexahydropyrrolo[3,4-c]pyrrol-2(1H)-yl]-6-methylpyrimidin-4-yl}methanol]	0.024 µM
COc1ccc(C(=O)N2CC3CN(c4cnc5cc(F)c(F)cc5n4)CC3C2)c(-c2ncccn2)c1 (stereo not drawn) [Example 459, 6,7-Difluoro-2-{5-[(4-methoxy-2-pyrimidin-2-ylphenyl)carbonyl]hexahydropyrrolo[3,4-c]pyrrol-2(1H)-yl}quinoxaline]	0.038 µM
Cc1nc(N(C)C)cc(N2CC3CN(C(=O)c4c(F)cccc4-n4nccn4)CC3C2)n1 (stereo not drawn) [Example 418, 6-[5-{[2-Fluoro-6-(2H-1,2,3-triazol-2-yl)phenyl]carbonyl}hexahydropyrrolo[3,4-c]pyrrol-2(1H)-yl]-N,N,2-trimethylpyrimidin-4-amine]	0.055 µM
Cc1cc(C)nc(N2CC3CN(C(=O)c4c(C)nc5sccn45)CC3C2)n1 (stereo not drawn) [Example 464, 5-{[5-(4,6-Dimethylpyrimidin-2-yl)hexahydropyrrolo[3,4-c]pyrrol-2(1H)-yl]carbonyl}-6-methylimidazo[2,1-b][1,3]thiazole]	3.9 µM
CCCOc1ccc(C)cc1C(=O)N1CC2CN(c3cc(N(C)C)nc(C)n3)CC2C1 (stereo not drawn) [Example 430, N,N,2-Trimethyl-6-{5-[(5-methyl-2-propoxyphenyl)carbonyl]hexahydropyrrolo[3,4-c]pyrrol-2(1H)-yl}pyrimidin-4-amine]	0.27 µM
Cc1nc(N2CC3CN(C(=O)c4ncc(Cl)cc4-n4nccn4)CC3C2)nc(C)c1C (stereo not drawn) [Example 442, 2-{[5-Chloro-3-(2H-1,2,3-triazol-2-yl)pyridin-2-yl]carbonyl}-5-(4,5,6-trimethylpyrimidin-2-yl)octahydropyrrolo[3,4-c]pyrrole]	0.026 µM
Cc1nc(N(C)C)cc(N2CC3CN(C(=O)c4cc(F)ccc4-c4ncccn4)CC3C2)n1 (stereo not drawn) [Example 425, 6-{5-[(5-Fluoro-2-pyrimidin-2-ylphenyl)carbonyl]hexahydropyrrolo[3,4-c]pyrrol-2(1H)-yl}-N,N,2-trimethylpyrimidin-4-amine]	0.085 µM
COc1cnc(C(=O)N2CC3CN(c4nc(C)c(C)c(C)n4)CC3C2)c(-n2nccn2)c1 (stereo not drawn) [Example 444, 2-{[5-Methoxy-3-(2H-1,2,3-triazol-2-yl)pyridin-2-yl]carbonyl}-5-(4,5,6-trimethylpyrimidin-2-yl)octahydropyrrolo[3,4-c]pyrrole]	0.02 µM

Further lines, results first:

Ki	Structure (SMILES)
10 µM	Cc1cc(C)nc(N2CC3CN(C(=O)c4nc(C)ccc4-n4ccnn4)CC3C2)n1 (stereo not drawn) [Example 439, 2-(4,6-Dimethylpyrimidin-2-yl)-5-{[6-methyl-3-(1H-1,2,3-triazol-1-yl)pyridin-2-yl]carbonyl}octahydropyrrolo[3,4-c]pyrrole]
0.18 µM	Cc1cc(C)nc(N2CC3CN(C(=O)c4cc(F)ccc4-c4cscn4)CC3C2)n1 (stereo not drawn) [Example 494, 2-(4,6-Dimethylpyrimidin-2-yl)-5-{[5-fluoro-2-(1,3-thiazol-4-yl)phenyl]carbonyl}octahydropyrrolo[3,4-c]pyrrole]
0.011 µM	COc1ccnc(-c2cccc(F)c2C(=O)N2CC3CN(c4nc(C)cc(C)n4)CC3C2)n1 (stereo not drawn) [Example 483, 2-(4,6-Dimethylpyrimidin-2-yl)-5-{[2-fluoro-6-(4-methoxypyrimidin-2-yl)phenyl]carbonyl}octahydropyrrolo[3,4-c]pyrrole]
0.334 µM	CCOc1ncccc1C(=O)N1CC2CN(c3nc(C)cc(C)n3)CC2C1 (stereo not drawn) [Example 415, 2-(4,6-Dimethylpyrimidin-2-yl)-5-[(2-ethoxypyridin-3-yl)carbonyl]octahydropyrrolo[3,4-c]pyrrole]
0.897 µM	CCOc1ccc(C)nc1C(=O)N1CC2CN(c3nc(C)cc(C)n3)CC2C1 (stereo not drawn) [Example 414, 2-(4,6-Dimethylpyrimidin-2-yl)-5-[(3-ethoxy-6-methylpyridin-2-yl)carbonyl]octahydropyrrolo[3,4-c]pyrrole]
0.054 µM	Cc1cc(C)nc(N2CC3CN(C(=O)c4c(F)cccc4-c4cncs4)CC3C2)n1 (stereo not drawn) [Example 487, 2-(4,6-Dimethylpyrimidin-2-yl)-5-{[2-fluoro-6-(1,3-thiazol-5-yl)phenyl]carbonyl}octahydropyrrolo[3,4-c]pyrrole]
0.108 µM	Cc1cc(C)nc(N2CC3CN(C(=O)c4nc(C)ccc4-c4ncccn4)CC3C2)n1 (stereo not drawn) [Example 421, 2-(4,6-Dimethylpyrimidin-2-yl)-5-[(6-methyl-3-pyrimidin-2-ylpyridin-2-yl)carbonyl]octahydropyrrolo[3,4-c]pyrrole]
0.049 µM	Cc1cc(C)nc(N2CC3CN(C(=O)c4c(F)cccc4-c4[nH]ncc4C(F)(F)F)CC3C2)n1 (stereo not drawn) [Example 478, 2-(4,6-Dimethylpyrimidin-2-yl)-5-({2-fluoro-6-[4-(trifluoromethyl)-1H-pyrazol-5-yl]phenyl}carbonyl)octahydropyrrolo[3,4-c]pyrrole]
0.015 µM	Cc1cc(C)nc(N2CC3CN(C(=O)c4c(F)cccc4-c4cscn4)CC3C2)n1 (stereo not drawn) [Example 486, 2-(4,6-Dimethylpyrimidin-2-yl)-5-{[2-fluoro-6-(1,3-thiazol-4-yl)phenyl]carbonyl}octahydropyrrolo[3,4-c]pyrrole]
10 µM	Cc1cc(C)nc(N2CC3CN(C(=O)c4cc(F)ccc4-c4cccn4C)CC3C2)n1 (stereo not drawn) [Example 493, 2-(4,6-Dimethylpyrimidin-2-yl)-5-{[5-fluoro-2-(1-methyl-1H-pyrrol-2-yl)phenyl]carbonyl}octahydropyrrolo[3,4-c]pyrrole]
0.084 µM	CSc1nccc(-c2cccc(F)c2C(=O)N2CC3CN(c4nc(C)cc(C)n4)CC3C2)n1 (stereo not drawn) [Example 485, 2-(4,6-Dimethylpyrimidin-2-yl)-5-({2-fluoro-6-[2-(methylsulfanyl)pyrimidin-4-yl]phenyl}carbonyl)octahydropyrrolo[3,4-c]pyrrole]

Reference: US9586962B2, “Disubstituted octahydropyrrolo [3,4-C] pyrroles as orexin receptor modulators” (Janssen Pharmaceutica NV, priority 2011, dated 2017)
